Experimental data as given in US20160031909A1, “PORPHYRAZINE OPTICAL AND DUAL OPTICAL/ MR CONTRAST AND THERAPEUTIC AGENTS” (HOFFMAN/BARRETT, LLC, priority 2013, published 2016).
Several values for one entry are separate records, joined by “and”; a condition that tells them apart may be missing. Equal entries are not always repeated.

How the values were obtained:
[1] = Relaxation time measurements (longitudinal relaxivity r1); assay type: physicochemical
Description: The efficiency of a contrast agent in reducing the longitudinal relaxation time of water protons is defined in terms as relaxivity (mM^−1 s^−1) (14). It has been predicted by Solomon-Bloembergen-Morgan theory that a slow molecule tumbling of an MRI agent causes an increase in rotational correlation time, Tr, which in turn results in increase in relaxivity (14, 15). A common approach to increase relaxivity by slowing down the molecular tumbling is to attach Gd(III) complexes to a macromolecule through rigid linkages (12,16). The relaxivity of the monomeric DOTA-Gd(III) (DOTA is 1,4,7,10-tetraazacyclododecane-N,N,N″,N″-tetraacetic acid) used in the clinic is shown for comparison (17). […] Both the Zn-Pz-Gd(III) and Cu-Pz-Gd(III) had higher longitudinal relaxivity than DOTAGd(III).
Solutions of M-Pz-Gd(III) (M=Zn, Cu) conjugates were dissolved in 500 μL of filtered, deionized H20 (18.2 MΩ·cm) for T1 acquisition. Relaxation times were measured on a Bruker mq60 NMRanalyzer equipped with Minispec v2.51 Rev.00/NT software (Bruker Biospin, Billerica, Mass., USA) operating at 1.41 T (60 MHz) and 37° C. T1 relaxation times were measured using an inversion recovery pulse sequence (T1—ir_mb) using the following parameters: 4 scans per point, 10 data points for fitting, mono-exponential curve fitting, phase cycling, 10 ms first pulse separation, and a recycle delay and final pulse separation≧5 T1. The gadolinium concentrations of each solution were determined using ICP-MS. The inverse of the longitudinal relaxation time (1/ T1, s^−1) was plotted against gadolinium concentration (mM) and fitted to a straight line with an R^2>0.99. The slope of the fitted line was recorded as the relaxivity, r1.

MDA-MB-231 cells = assay: MR imaging of cell pellets at 9.4 T; assay type: cell-based
Protocol: To determine whether the cellular uptake and molecular relativity of Cu-Pz-Gd(III) provides an effective MR contrast agent, MDA-MB-231 breast tumor cells were treated with M-Pz-Gd(III) complexes (200 μM) and centrifuged into capillaries (about 1.0 mm diameter) prior to MR imaging. […] The amount of Gd(III) per cell was determined by ICP-MS for each pellet and, as expected, T1 is inversely proportional to Gd(III) content. (FIG. 2B).
9.4 T MR imaging and T1/T2 measurements were performed on a Bruker Biospec 9.4 T imaging spectrometer fitted with shielded gradient coils at 25° C. For cell pellets images, about 2.0×10^6 MDA-MB-231 cells were incubated in 25-cm^2 T-flasks with either Cu-Pz-Gd(III), Zn-Pz-Gd(III) or DOTA-Gd(III) (400 μM wrt Gd(III)) for 24 hours, rinsed with DPBS (3×5 mL/flask), and harvested with 500 μL, of a 0.25-vol % trypLE Express solution. […] The bottom sections of the flame-sealed pipets were then scored with a glass scribe, broken into small capillaries, then imaged using a RF RES 400 1H 089/038 quadrature transmit receive 23-mm volume coil (Bruker BioSpin, Billerica, Mass., USA).
Spin-lattice relaxation times (T1) were measured using a […] (RARE-VTR) T1-map pulse sequence, with static TE (10 ms) and variable TR (100, 200, 400, 500, 750, 1000, 2500, 5000, 7500, and 10000 ms) values. […]

[2] = HPLC analysis of urine collected from mice; assay type: in vivo, athymic nude mice

## Cu[Pz(C19H28N8O7Gd)2]. Pz=18,21-bis(2-(1H-1,2,3-triazole-4-yl) ethoxy)-tris-[1,4-dioxino[g,l,q](2R,3R)-2,3-dimethoxy-2,3-dimethyll 25H,27H-benzo[b]porphyrazine; C19H28N8O7Gd=N-methyl-2-aminoacetamide-4,7,10-tris(carboxymethyl)-1,4,7,10-tetraazacyclododecylgadolinium(III)) [Cu-Pz-Gd(III)]
[1]; compared with clinically-used monomeric DOTA-Gd(III)
  solution-phase ionic relaxivity relative to DOTA-Gd(III): about four times greater
[1]; per Gd(III), water, 1.41 T (60 MHz), 37° C.
  Ionic r1: 11.5 mM^−1 S^−1
[1]; per molecule (2 Gd(III)), water, 1.41 T (60 MHz), 37° C.
  Molecular r1: 23.0 mM^−1 S^−1
[1]; text of b56, unit inferred
  solution phase molecular relaxivity (r1): 23 mM⁻¹ s⁻¹
MDA-MB-231 cells; MDA-MB-231, 200 μM, vs Zn-Pz-Gd(III), DOTA-Gd(III) or vehicle
  MR image intensity of cell pellets: significant increases in image intensity
MDA-MB-231 cells; MDA-MB-231 cell pellets, 200 μM complex (400 μM wrt Gd(III)), 24 hours, 9.4 T, 25° C.
  contrast to noise ratio (CNR): 9.336±0.335 and 9.336
[2]
  form cleared in urine: cleared intact
